{"source": "paper doi:10.1101/2024.01.16.575974v2", "about": "“Structural insights into peptidoglycan hydrolysis by the FtsEX system in Escherichia coli during cell division” (biorxiv, 2025)", "key": {"[1]": {"target": "T1, EcoFtsEX (Escherichia coli, UniProt P0A9R7)", "T1 construct": "gene ftsE; full-length, His6-tagged (pTD68 his6-FtsEX), expressed in E. coli BL21(DE3) pLysS, DDM-solubilised, in peptidiscs; two FtsE and two FtsX; with Cell division protein FtsX", "T1 sequence (P0A9R7 1-222)": "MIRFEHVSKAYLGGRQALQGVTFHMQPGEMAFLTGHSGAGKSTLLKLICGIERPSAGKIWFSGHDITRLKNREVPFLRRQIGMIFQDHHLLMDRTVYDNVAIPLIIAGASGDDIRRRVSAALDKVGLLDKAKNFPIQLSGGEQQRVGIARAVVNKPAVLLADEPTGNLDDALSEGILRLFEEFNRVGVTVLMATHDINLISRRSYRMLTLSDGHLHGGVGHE", "T1 sequence (P0AC30 1-352 partner)": "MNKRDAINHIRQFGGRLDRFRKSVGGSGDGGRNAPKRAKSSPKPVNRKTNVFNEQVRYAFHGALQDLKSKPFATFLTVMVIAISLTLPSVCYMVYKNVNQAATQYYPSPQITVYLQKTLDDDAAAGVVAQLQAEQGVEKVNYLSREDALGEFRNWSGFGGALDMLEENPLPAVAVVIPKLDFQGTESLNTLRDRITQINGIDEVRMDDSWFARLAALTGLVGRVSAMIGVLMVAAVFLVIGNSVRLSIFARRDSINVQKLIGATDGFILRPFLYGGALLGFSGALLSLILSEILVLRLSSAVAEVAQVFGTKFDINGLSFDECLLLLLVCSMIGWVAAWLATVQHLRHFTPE", "experiment": "complex stabilisation against precipitation (SDS-PAGE)", "type": "binding", "details": "2 mM nucleotide, pH 8.0"}, "[2]": {"target": "T2, BsFtsEX (Bacillus subtilis, UniProt O34814)", "T2 construct": "gene ftsE; His6-FtsEX (pTD68) expressed in E. coli BL21(DE3) pLysS, DDM-solubilised, peptidiscs, SEC; with Cell division protein FtsX", "T2 sequence (O34814 1-228)": "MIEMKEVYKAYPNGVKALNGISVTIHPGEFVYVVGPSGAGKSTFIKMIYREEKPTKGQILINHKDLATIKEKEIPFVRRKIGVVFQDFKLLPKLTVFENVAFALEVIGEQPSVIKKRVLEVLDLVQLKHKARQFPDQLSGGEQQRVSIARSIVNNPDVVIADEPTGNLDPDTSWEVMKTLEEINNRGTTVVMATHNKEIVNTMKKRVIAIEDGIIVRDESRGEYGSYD", "T2 sequence (O34876 1-296 partner)": "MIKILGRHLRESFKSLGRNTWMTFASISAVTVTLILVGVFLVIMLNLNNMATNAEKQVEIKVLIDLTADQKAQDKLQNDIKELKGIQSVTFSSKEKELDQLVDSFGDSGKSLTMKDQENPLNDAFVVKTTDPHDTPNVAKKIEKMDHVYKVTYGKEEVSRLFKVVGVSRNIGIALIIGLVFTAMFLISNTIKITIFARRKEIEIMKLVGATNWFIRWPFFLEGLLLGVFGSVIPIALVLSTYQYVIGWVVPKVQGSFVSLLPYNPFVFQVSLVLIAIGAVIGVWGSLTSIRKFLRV", "experiment": "complex stabilisation (SEC yield, FtsE:FtsX stoichiometry on SDS-PAGE)", "details": "2 mM ATP, pH 8.0; indirect evidence of binding"}, "[3]": {"target": "T3, EcoFtsEX/EnvC (Escherichia coli, UniProt P0A9R7, E163Q)", "T3 construct": "gene ftsE; full-length His6-FtsEX in peptidiscs plus EnvC delta34 (signal region removed, His6-SUMO tag cut), both expressed in E. coli BL21(DE3) pLysS; with Cell division protein FtsX", "T3 sequence (P0A9R7 1-222 E163Q)": "T1 sequence (P0A9R7 1-222) with E163Q", "T3 sequence (P0AC30 1-352 partner)": "T1 sequence (P0AC30 1-352 partner)", "T3 sequence (P37690 35-419 partner)": "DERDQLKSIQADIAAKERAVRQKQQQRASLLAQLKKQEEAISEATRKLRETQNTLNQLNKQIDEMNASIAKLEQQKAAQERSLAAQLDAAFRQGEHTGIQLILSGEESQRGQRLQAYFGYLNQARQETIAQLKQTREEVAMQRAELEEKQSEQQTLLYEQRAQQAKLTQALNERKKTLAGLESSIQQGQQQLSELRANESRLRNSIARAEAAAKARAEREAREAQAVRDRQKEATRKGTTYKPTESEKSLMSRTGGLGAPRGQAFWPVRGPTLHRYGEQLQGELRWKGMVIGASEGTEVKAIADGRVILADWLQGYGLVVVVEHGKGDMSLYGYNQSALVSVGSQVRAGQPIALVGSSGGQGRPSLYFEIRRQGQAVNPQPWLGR", "experiment": "cryo-EM structure, […] Å", "type": "binding", "details": "2 mM ATP-Mg2+, peptidiscs; hydrolysis-deficient mutant, two bound nucleotides at FtsE"}, "[4]": {"target": "T4, SpFtsEX (Streptococcus pneumoniae, UniProt A0A0H2ZM82)", "T4 construct": "gene ftsE; His6-FtsEX (pTD68) expressed in E. coli BL21(DE3) pLysS, DDM-solubilised, peptidiscs, SEC; with Cell division protein FtsX", "T4 sequence (A0A0H2ZM82 1-230)": "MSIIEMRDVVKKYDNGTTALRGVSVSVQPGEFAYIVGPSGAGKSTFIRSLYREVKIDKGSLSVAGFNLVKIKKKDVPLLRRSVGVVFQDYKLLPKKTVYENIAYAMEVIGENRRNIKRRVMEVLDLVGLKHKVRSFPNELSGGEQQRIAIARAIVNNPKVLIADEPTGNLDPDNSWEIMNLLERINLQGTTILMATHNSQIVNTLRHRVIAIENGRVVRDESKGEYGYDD", "T4 sequence (Q04LE4 1-308 partner)": "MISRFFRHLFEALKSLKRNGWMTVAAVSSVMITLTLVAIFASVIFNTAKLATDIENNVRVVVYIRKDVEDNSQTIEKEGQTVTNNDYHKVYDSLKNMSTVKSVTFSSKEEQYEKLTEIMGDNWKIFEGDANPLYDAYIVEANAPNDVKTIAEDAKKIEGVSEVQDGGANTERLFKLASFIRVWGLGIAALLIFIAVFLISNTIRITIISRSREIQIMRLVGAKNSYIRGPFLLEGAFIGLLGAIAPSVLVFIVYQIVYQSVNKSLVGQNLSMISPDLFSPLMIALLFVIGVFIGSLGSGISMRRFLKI", "experiment": "complex stabilisation (SEC yield, FtsE:FtsX stoichiometry on SDS-PAGE)", "details": "2 mM ATP, pH 8.0; indirect evidence of binding"}, "[5]": {"target": "T5, PaeFtsEX (Pseudomonas aeruginosa, UniProt Q9I6C0)", "T5 construct": "gene ftsE; His6-FtsEX (pTD68) expressed in E. coli BL21(DE3) pLysS, DDM-solubilised, peptidiscs, SEC; with Cell division protein FtsX", "T5 sequence (Q9I6C0 1-223)": "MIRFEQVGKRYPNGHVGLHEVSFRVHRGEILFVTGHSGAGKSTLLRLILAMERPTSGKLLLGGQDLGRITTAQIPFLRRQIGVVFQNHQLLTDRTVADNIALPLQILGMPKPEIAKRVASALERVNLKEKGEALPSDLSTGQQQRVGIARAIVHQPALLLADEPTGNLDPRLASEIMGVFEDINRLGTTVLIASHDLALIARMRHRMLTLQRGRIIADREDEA", "T5 sequence (Q9I6B9 1-335 partner)": "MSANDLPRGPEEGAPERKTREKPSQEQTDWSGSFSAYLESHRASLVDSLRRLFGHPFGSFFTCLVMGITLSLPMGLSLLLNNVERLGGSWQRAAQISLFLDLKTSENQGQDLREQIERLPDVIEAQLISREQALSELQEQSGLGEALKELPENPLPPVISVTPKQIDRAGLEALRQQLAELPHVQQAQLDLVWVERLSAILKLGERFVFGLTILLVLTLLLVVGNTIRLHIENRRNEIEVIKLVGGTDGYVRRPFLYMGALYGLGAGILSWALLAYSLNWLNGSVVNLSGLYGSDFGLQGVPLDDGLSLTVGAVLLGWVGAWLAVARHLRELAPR", "experiment": "complex stabilisation (SEC yield, FtsE:FtsX stoichiometry on SDS-PAGE)", "details": "2 mM ATP, pH 8.0; indirect evidence of binding"}, "[6]": {"target": "T1, EcoFtsEX", "experiment": "cryo-EM structure, […] Å", "type": "binding", "details": "3 mM ATPγS, 2 mM Mg2+, peptidiscs; two bound nucleotides at FtsE"}}, "note": "Where a chain is given by its changes, count along the chain named.", "data": [{"smiles": "Nc1ncnc2c1ncn2[C@@H]1O[C@H](COP(=O)(O)OP(=O)(O)O)[C@@H](O)[C@H]1O", "note": "[ADP]", "values": [{"measurement": "complex stabilisation against precipitation (SDS-PAGE)", "setting": "[1]", "value": "ATP analogues, including ATPγS, AMP-PNP, and ADP, also exhibited similar stabilizing effects"}]}, {"smiles": "Nc1ncnc2c1ncn2[C@@H]1O[C@H](COP(=O)(O)OP(=O)(O)NP(=O)(O)O)[C@@H](O)[C@H]1O", "note": "[AMP-PNP]", "values": [{"measurement": "complex stabilisation against precipitation (SDS-PAGE)", "setting": "[1]", "value": "ATP analogues, including ATPγS, AMP-PNP, and ADP, also exhibited similar stabilizing effects"}]}, {"smiles": "Nc1ncnc2c1ncn2[C@@H]1O[C@H](COP(=O)(O)OP(=O)(O)OP(=O)(O)O)[C@@H](O)[C@H]1O", "note": "[ATP]", "values": [{"measurement": "complex stabilisation (SEC yield, FtsE:FtsX stoichiometry on SDS-PAGE)", "setting": "[2]", "value": "regardless of the bacterial species, ATP consistently enhanced the stability of the complexes"}, {"measurement": "cryo-EM structure, 3.4 Å", "setting": "[3]", "value": "8W6J (ATP-bound FtsE^E163QX/EnvC)"}, {"measurement": "complex stabilisation (SEC yield, FtsE:FtsX stoichiometry on SDS-PAGE)", "setting": "[4]", "value": "regardless of the bacterial species, ATP consistently enhanced the stability of the complexes"}, {"measurement": "complex stabilisation (SEC yield, FtsE:FtsX stoichiometry on SDS-PAGE)", "setting": "[5]", "value": "regardless of the bacterial species, ATP consistently enhanced the stability of the complexes"}]}, {"smiles": "Nc1ncnc2c1ncn2[C@@H]1O[C@H](COP(=O)(O)OP(=O)(O)OP(O)(O)=S)[C@@H](O)[C@H]1O", "note": "[ATPγS]", "values": [{"measurement": "cryo-EM structure, 3.7 Å", "setting": "[6]", "value": "8W6I (ATPγS bound FtsEX)"}]}]}
